From ChEMBL document CHEMBL5126592, “Design, synthesis and activity against drug-resistant bacteria evaluation of C-20, C-23 modified 5-O-mycaminosyltylonolide derivatives” (Eur J Med Chem, 2022)
Converted amounts (≈) assume the structure as drawn. The source made the active and inactive calls. No cut-off for these calls is given here.

Key:
Escherichia coli [1] = assay: Antibacterial activity against Escherichia coli ATCC 25922 at pH 7.4 incubated for 16 to 20 hrs by broth microdilution method; type: functional; conditions: time 16-20 hrs
Escherichia coli [2] = assay: Antibacterial activity against Escherichia coli ATCC 25922 incubated for 16 to 20 hrs in absence of foetal bovine serum by broth microdilution method; type: functional; conditions: time 16-20 hrs
Escherichia coli [3] = assay: Ratio of MBC to MIC for Escherichia coli ATCC 25922; type: functional
Staphylococcus aureus [4] = assay: Antibacterial activity against Staphylococcus aureus ATCC 29213 at pH 8.6 incubated for 16 to 20 hrs in absence of foetal bovine serum by broth microdilution method; type: functional; conditions: time 16-20 hrs
Escherichia coli [5] = assay: Antibacterial activity against Escherichia coli ATCC 25922 at pH 7.8 incubated for 16 to 20 hrs by broth microdilution method; type: functional; conditions: time 16-20 hrs
[6] = Genotoxicity in Salmonella typhimurium TA98 assessed as number of revertants at 8x10^-6 mg/plate incubated for 72 hrs in presence of liver S9 fraction by Ames test (reference value: 43.67+/- 7.1); type: toxicity, subcellular; conditions: salmonella enterica subsp. enterica serovar typhimurium, s9, 72 h
Staphylococcus aureus [7] = assay: Antibacterial activity against Staphylococcus aureus ATCC 29213 at pH 8 incubated for 16 to 20 hrs by broth microdilution method; type: functional; conditions: time 16-20 hrs
Staphylococcus aureus [8] = assay: Antibacterial activity against Staphylococcus aureus ATCC 29213 at pH 7.8 incubated for 16 to 20 hrs by broth microdilution method; type: functional; conditions: time 16-20 hrs
Escherichia coli [9] = assay: Antibacterial activity against Escherichia coli ATCC 25922 incubated for 16 to 20 hrs using 10^6 CFU/ml bacterial inoculum by broth microdilution method; type: functional; conditions: time 16-20 hrs
Staphylococcus aureus [10] = assay: Antibacterial activity against Staphylococcus aureus ATCC 25923 infected in kunming mouse assessed as reduction in lung congestion at 20 to 40 mg/kg, iv measured after 1 hr by hematoxylin and eosin staining based microscopic analysis; type: functional, organism-based; conditions: dose 20-40 mg/kg
[11] = Genotoxicity in Salmonella typhimurium TA1535 assessed as number of revertants at 2x10^-4 mg/plate incubated for 72 hrs in presence of liver S9 fraction by Ames test (reference value: 15.33 +/- 2.52); type: toxicity, subcellular; conditions: salmonella enterica subsp. enterica serovar typhimurium, s9, 72 h
Staphylococcus aureus [12] = assay: Bactericidal activity against Staphylococcus aureus ATCC 29213 incubated for 20 to 24 hrs by CLSI based analysis; type: functional; conditions: time 20-24 hrs
Escherichia coli [13] = assay: Antibacterial activity against Escherichia coli ATCC 25922 at pH 6.6 incubated for 16 to 20 hrs by broth microdilution method; type: functional; conditions: time 16-20 hrs
Staphylococcus aureus [14] = assay: Antibacterial activity against Staphylococcus aureus ATCC 29213 at pH 8.6 incubated for 16 to 20 hrs in presence of 5% foetal bovine serum by broth microdilution method; type: functional; conditions: time 16-20 hrs
[15] = Toxicity in Kunming mouse infected with Staphylococcus aureus ATCC 25923 assessed as reduction in neutrophils at 20 to 40 mg/kg, iv measured after 1 hr by hematoxylin and eosin staining based microscopic analysis; type: organism-based; conditions: in vivo, dose 20-40 mg/kg
Escherichia coli [16] = assay: Antibacterial activity against Escherichia coli ATCC 25922 incubated for 16 to 20 hrs in presence of 10% foetal bovine serum by broth microdilution method; type: functional; conditions: time 16-20 hrs
[17] = Genotoxicity in Salmonella typhimurium TA100 assessed as number of revertants at 1.6x10^-6 mg/plate incubated for 72 hrs in absence of liver S9 fraction by Ames test (reference value: 221.67 +/- 15.57); type: toxicity; conditions: salmonella enterica subsp. enterica serovar typhimurium, s9, 72 h
[18] = Genotoxicity in Salmonella typhimurium TA98 assessed as number of revertants at 8x10^-6 mg/plate incubated for 72 hrs in absence of liver S9 fraction by Ames test (reference value: 57.33 +/- 3.06); type: toxicity; conditions: salmonella enterica subsp. enterica serovar typhimurium, s9, 72 h
Escherichia coli [19] = assay: Antibacterial activity against Escherichia coli ATCC 25922 incubated for 16 to 20 hrs in presence of 25% foetal bovine serum by broth microdilution method; type: functional; conditions: time 16-20 hrs
[20] = Genotoxicity in Salmonella typhimurium TA1537 assessed as number of revertants at 1x10^-3 mg/plate incubated for 72 hrs in presence of liver S9 fraction by Ames test (reference value: 20 +/- 5); type: toxicity, subcellular; conditions: salmonella enterica subsp. enterica serovar typhimurium, s9, 72 h
[21] = Genotoxicity in Salmonella typhimurium TA102 assessed as number of revertants at 4x10^-5 mg/plate incubated for 72 hrs in absence of liver S9 fraction by Ames test (reference value: 386.67 +/- 23.44); type: toxicity; conditions: salmonella enterica subsp. enterica serovar typhimurium, s9, 72 h
[22] = Genotoxicity in Salmonella typhimurium TA1537 assessed as number of revertants at 1x10^-3 mg/plate incubated for 72 hrs in absence of liver S9 fraction by Ames test (reference value: 22.67 +/- 2.52); type: toxicity; conditions: salmonella enterica subsp. enterica serovar typhimurium, s9, 72 h
Staphylococcus aureus [23] = assay: Antibacterial activity against Staphylococcus aureus ATCC 29213 incubated for 16 to 20 hrs using 10^5 CFU/ml bacterial inoculum by broth microdilution method; type: functional; conditions: time 16-20 hrs
Escherichia coli [24] = assay: Antibacterial activity against Escherichia coli ATCC 25922 incubated for 16 to 20 hrs in presence of 50% foetal bovine serum by broth microdilution method; type: functional; conditions: time 16-20 hrs
[25] = Toxicity in Kunming mouse infected with Staphylococcus aureus ATCC 25923 assessed as normal alveolar wall thickness at 20 to 40 mg/kg, iv measured after 1 hr by hematoxylin and eosin staining based microscopic analysis; type: organism-based; conditions: in vivo, dose 20-40 mg/kg
Escherichia coli [26] = assay: Antibacterial activity against Escherichia coli ATCC 25922 at pH 6.8 incubated for 16 to 20 hrs by broth microdilution method; type: functional; conditions: time 16-20 hrs
Staphylococcus aureus [27] = assay: Antibacterial activity against Staphylococcus aureus ATCC 29213 incubated for 16 to 20 hrs using 10^4 CFU/ml bacterial inoculum by broth microdilution method; type: functional; conditions: time 16-20 hrs
Escherichia coli [28] = assay: Antibacterial activity against Escherichia coli ATCC 25922 at pH 7.6 incubated for 16 to 20 hrs by broth microdilution method; type: functional; conditions: time 16-20 hrs
[29] = Genotoxicity in Salmonella typhimurium TA98 assessed as number of revertants at 2x10^-4 mg/plate incubated for 72 hrs in presence of liver S9 fraction by Ames test (reference value: 43.67+/- 7.1); type: toxicity, subcellular; conditions: salmonella enterica subsp. enterica serovar typhimurium, s9, 72 h
Klebsiella pneumoniae = assay: Antibacterial activity against Klebsiella pneumoniae ATCC 13883 incubated for 16 to 20 hrs by broth microdilution method; type: functional; conditions: time 16-20 hrs
[30] = Genotoxicity in Salmonella typhimurium TA1535 assessed as number of revertants at 8x10^-6 mg/plate incubated for 72 hrs in absence of liver S9 fraction by Ames test (reference value: 14.33 +/- 0.58); type: toxicity; conditions: salmonella enterica subsp. enterica serovar typhimurium, s9, 72 h
[31] = Genotoxicity in Salmonella typhimurium TA1537 assessed as number of revertants at 4x10^-5 mg/plate incubated for 72 hrs in presence of liver S9 fraction by Ames test (reference value: 20 +/- 5); type: toxicity, subcellular; conditions: salmonella enterica subsp. enterica serovar typhimurium, s9, 72 h
[32] = Genotoxicity in Salmonella typhimurium TA1537 assessed as number of revertants at 8x10^-6 mg/plate incubated for 72 hrs in presence of liver S9 fraction by Ames test (reference value: 20 +/- 5); type: toxicity, subcellular; conditions: salmonella enterica subsp. enterica serovar typhimurium, s9, 72 h
Escherichia coli [33] = assay: Antibacterial activity against Escherichia coli incubated for 16 to 20 hrs by broth microdilution method; type: functional; conditions: time 16-20 hrs
[34] = Genotoxicity in Salmonella typhimurium TA102 assessed as number of revertants at 1.6x10^-6 mg/plate incubated for 72 hrs in absence of liver S9 fraction by Ames test (reference value: 386.67 +/- 23.44); type: toxicity; conditions: salmonella enterica subsp. enterica serovar typhimurium, s9, 72 h

Structure (SMILES): CC[C@H]1OC(=O)C[C@@H](O)[C@H](C)[C@@H](O[C@@H]2O[C@H](C)[C@@H](O)[C@H](N(C)C)[C@H]2O)[C@@H](CCN(C)Cc2cn(-c3cnc4ccccc4c3)nn2)C[C@@H](C)C(=O)/C=C/C(C)=C/[C@@H]1CN1CCCCCC1
- MIC (Escherichia coli [1]): 1 µg/mL (≈ 1.11 µM)
- MIC (Escherichia coli [2]): 1 µg/mL (≈ 1.11 µM)
- Ratio (Escherichia coli [3]): 2
- MIC (Staphylococcus aureus [4]): 0.25 µg/mL (≈ 0.277 µM)
- MIC (Escherichia coli [5]): 0.5 µg/mL (≈ 0.554 µM)
- Activity [6]: 45.67
- MIC (Staphylococcus aureus [7]): ≤ 0.0625 µg/mL
- MIC (Staphylococcus aureus [8]): ≤ 0.0625 µg/mL
- MIC (Escherichia coli [9]): 0.5 µg/mL (≈ 0.554 µM)
- Activity (Staphylococcus aureus [10]): Active
- Activity [11]: 12.67
- MBC (Staphylococcus aureus [12]): 0.25 µg/mL (≈ 0.277 µM)
- MIC (Escherichia coli [13]): 32 µg/mL (≈ 35.5 µM)
- MIC (Staphylococcus aureus [14]): 0.5 µg/mL
- Activity [15]: Non-Toxic
- MIC (Escherichia coli [16]): 2 µg/mL
- Activity [17]: 157.67
- Activity [18]: 63.33
- MIC (Escherichia coli [19]): 4 µg/mL
- Activity [20]: 15.67
- Activity [21]: 429.33
- Activity [22]: 15.33
- MIC (Staphylococcus aureus [23]): 0.125 µg/mL (≈ 0.139 µM)
- MIC (Escherichia coli [24]): 4 µg/mL
- Activity [25]: Non-Toxic
- MIC (Escherichia coli [26]): 8 µg/mL (≈ 8.87 µM)
- MIC (Staphylococcus aureus [27]): 0.125 µg/mL (≈ 0.139 µM)
- MIC (Escherichia coli [28]): 0.5 µg/mL (≈ 0.554 µM)
- Activity [29]: 44.33
- MIC (Klebsiella pneumoniae): 1 µg/mL (≈ 1.11 µM)
- Activity [30]: 13
- Activity [31]: 14.67
- Activity [32]: 17.67
- MIC (Escherichia coli [33]): 1 µg/mL (≈ 1.11 µM)
- Activity [34]: 371.33
